Source: patent US8067620B2, “Dispiro 1,2,4-trioxolane antimalarials” (Medicines for Malaria Venture MMV, priority 2005, dated 2011)
In brackets after ≈: the same amount, converted by molar mass. Where two headings read alike, the source gives them in different places.

Legend:
[1] = system: chloroquine-sensitive NF54 strain of Plasmodium falciparum; assay: Activity against P. falciparum NF54 strain in vitro; type: cell-based
From the text: (§1) Activity of 1,2,4-trioxolanes against P. falciparum in vitro.

[2] = system: ANKA strain of P. berghei; assay: Single dose in vivo screen in P. berghei-infected NMRI mice; settings: for Survival (days) 30 mg/kg SSV po / Activity (%) 30 mg/kg SSV po: single 30 mg/kg po dose in SSV one day post-infection; for Activity (%) 30 mg/kg SSV po: percent reduction in parasitemia on day three post-infection; for Cures 30 mg/kg SSV po: single 30 mg/kg po dose in SSV, cure = survival to day 30 post-infection, groups of five mice
Method: Activity of 1,2,4-trioxolanes against P. berghei in vivo. In the single dose in vivo screen, NMRI mice infected with the ANKA strain of P. berghei (groups of five mice) were treated one day post-infection with trioxolanes dissolved or suspended in standard suspending vehicle (SSV). The SSV consists of either 0.5% w/v carboxymethyl cellulose, 0.5% v/v benzyl alcohol, 0.4% v/v Tween 80, and 0.9% w/v sodium chloride in water or 0.5% hydroxypropylmethylcellulose 0.4% v/s Tween 80, and 0.5% v/v benzyl alcohol in water. […] Antimalarial activity was measured by percent reduction in parasitemia on day three post-infection and survival times compared to an untreated control group. Survival to day 30 post-infection is considered to be a cure in this model.

[3] = system: chloroquine-resistant K1 strain of Plasmodium falciparum; assay: Activity against P. falciparum K1 strain in vitro; type: cell-based
From the text: as §1

P. berghei = assay: Prophylactic activity against P. berghei in vivo (mice dosed before infection); settings: for Cures 24 h prior to infection (30 mg/kg) / Activity (%) 24 h prior to infection (30 mg/kg): single 30 mg/kg oral dose 24 h prior to infection; for Cures 24 h prior to infection (30 mg/kg) / Cures 48 h prior to infection (100 mg/kg) / Cures 72 h prior to infection (100 mg/kg) / Cures 96 h prior to infection (100 mg/kg): n=5 mice; for Cures 48 h prior to infection (100 mg/kg) / Activity (%) 48 h prior to infection (100 mg/kg): single 100 mg/kg oral dose 48 h prior to infection; for Activity (%) 24 h prior to infection (30 mg/kg) / Activity (%) 48 h prior to infection (100 mg/kg): parasitemia day 3 post-infection; for Activity (%) 72 h prior to infection (100 mg/kg) / Cures 72 h prior to infection (100 mg/kg): single 100 mg/kg oral dose 72 h prior to infection; for Activity (%) 96 h prior to infection (100 mg/kg) / Cures 96 h prior to infection (100 mg/kg): single 100 mg/kg oral dose 96 h prior to infection
Method: All groups (n=5 mice per group) including an untreated control group, were infected at the same time and parasitemia was determined for each animal on day 3 post-infection and compared with the level of parasitemia in control animals.

[4] = Blood stability studies in freshly collected rat blood; type: in vitro ADME; parameters: unit not given here
Method: Blood stability studies: Compounds were incubated at 37° C. in freshly collected rat blood. At selected time points, duplicate aliquots of the whole blood were sampled, centrifuged and the plasma assayed for parent compound by LC-MS.

[5] = Pharmacokinetic studies in rats (oral); type: in vivo, rat; settings: oral 10 mg/kg; for Oral Bioavailability at 10 mg/kg (%): relative to an IV dose
Method: Pharmacokinetic studies in rats: Compounds were administered orally to rats (n=2) at a dose of 10 mg/kg in a suspension formulation containing hydroxypropylmethyl cellulose, Tween 80, benzyl alcohol, and water. […] Oral bioavailability for each compound was calculated relative to an IV dose for each compound in a suitable vehicle.

[6] = system: Embryonic red blood cells (RBCs); assay: Rat whole embryo culture (WEC) model, embryotoxicity
From the text: Embryonic red blood cells (RBCs) were the primary target leading to anemia and subsequent hypoxia in embryonic tissues.
Longo, M.; Zanoncelli, S.; Manera, D.; Brughera, M.; Colombo, P.; Lansen J.; Mazué, G.; Gomes, M.; Taylor W. R. J.; Olliaro, P. Effects of the Antimalarial Drug Dihydroartemisinin (DHA) on Rat Embryos In Vitro. Repro. Tox. 2006, 21, 83-93.

[7] = P. falciparum NF54, in vitro, second value of K1/NF54 cell, read-out: IC50 (ng/ml) NF54
[8] = P. falciparum K1, in vitro, first value of K1/NF54 cell, read-out: IC50 (ng/ml) K1

SMILES | Survival (days) 30 mg/kg SSV po [2] [days] | Activity (%) 30 mg/kg SSV po [2] [%] | Cures 30 mg/kg SSV po [2] | Cures 24 h prior to infection (30 mg/kg) (P. berghei) | Cures 48 h prior to infection (100 mg/kg) (P. berghei) | Activity (%) 24 h prior to infection (30 mg/kg) (P. berghei) [%] | Activity (%) 48 h prior to infection (100 mg/kg) (P. berghei) [%] | Activity (%) 72 h prior to infection (100 mg/kg) (P. berghei) [%] | Cures 72 h prior to infection (100 mg/kg) (P. berghei) | NOAEL for embryonic RBCs [6] [µg/mL] | further results
CO[C@H]1O[C@@H]2O[C@@]3(C)CC[C@H]4[C@H](C)CC[C@@H]([C@H]1C)[C@@]24OO3 [AM, artemether, reference compound] | 9.0 | 99.7 | 0/5 |  |  |  |  |  |  |  | IC50 [1, 7]: 1.2 ng/mL (≈ 0.00402 µM); IC50 [3, 8]: 0.74 ng/mL (≈ 0.00248 µM)
CCN(CC)CCCC(C)Nc1ccnc2cc(Cl)ccc12 (stereo not drawn) [CQ, chloroquine, reference compound] | 9.6 |  | 0/5 | 0/5 | 0/5 |  |  |  |  |  | IC50 ([1]; K1 / NF54, read-out: IC50 (ng/ml) NF54): 5.1 ng/mL (≈ 0.0159 µM); IC50 ([3]; K1 / NF54, read-out: IC50 (ng/ml) K1): 62 ng/mL (≈ 0.194 µM)
OC(c1cc(C(F)(F)F)nc2c(C(F)(F)F)cccc12)C1CCCCN1 (stereo not drawn) [MQ, mefloquine, reference compound] | 21.8 | 99.6 | 0/5 | 3/5 | 3/5 | >99.9 | 99.9 | >99.9 | 0/5 |  | IC50 [1, 7]: 5.8 ng/mL (≈ 0.0153 µM); IC50 [3, 8]: 3 ng/mL (≈ 0.00793 µM)
CC(C)(N)CNC(=O)C[C@H]1CC[C@]2(CC1)OO[C@]1(O2)C2CC3CC(C2)CC1C3 [OZ277, reference compound] | 8.0 | 99.7 | 0/5 | 0/5 | 0/5 | 13 | 0 |  |  | 0.2 | Stability in Rat Blood (t1/2) at 37° C. [4]: 0.8; In Vivo Oral t1/2 at 10 mg/kg [5]: 1.6 h; Oral Bioavailability at 10 mg/kg (%) [5]: 19%
CS(=O)(=O)O.c1cc(C2CCC3(CC2)OOC2(O3)C3CC4CC(C3)CC2C4)ccc1OCCN1CCOCC1 (stereo not drawn) [OZ439] |  |  |  | 5/5 | 5/5 | 99.8 | 99.6 | 99.6 | 5/5 | 5 | Activity (%) 96 h prior to infection (100 mg/kg) (P. berghei): 99.5%; Cures 96 h prior to infection (100 mg/kg) (P. berghei): 5/5; Oral Bioavailability at 10 mg/kg (%) [5]: 94%
CS(=O)(=O)O.NC1CCC(Oc2ccc(C3CCC4(CC3)OOC3(O4)C4CC5CC(C4)CC3C5)cc2)CC1 (stereo not drawn) [OZ493] |  |  |  | 3/5 | 5/5 | >99.9 | 99 | 99.9 | 5/5 | 1 | Activity (%) 96 h prior to infection (100 mg/kg) (P. berghei): 99.5%; Cures 96 h prior to infection (100 mg/kg) (P. berghei): 3/5; Stability in Rat Blood (t1/2) at 37° C. [4]: >17; In Vivo Oral t1/2 at 10 mg/kg ([5]; 10 mg/kg): 7.7 h; Oral Bioavailability at 10 mg/kg (%) ([5]; 10 mg/kg): 51%
C[C@@H]1CC[C@H]2[C@@H](C)C(=O)O[C@@H]3O[C@@]4(C)CC[C@@H]1[C@]32OO4 [artemisinin] |  |  |  |  |  |  |  |  |  | 0.1 | 
C[C@H]1[C@@H](O)O[C@@H]2O[C@@]3(C)CC[C@H]4[C@H](C)CC[C@@H]1[C@@]24OO3 [dihydroartemisinin] |  |  |  |  |  |  |  |  |  | 0.01 | 
